Square brackets hold non-standard residues; d marks the D form. Peptide text beside a SMILES is read from it. * marks the point of attachment. Nva = CCC[C@H](N)C(=O)O; Cbz = O=C(OCc1ccccc1)*
Tests used:
[1] = target: NFκBp65-associated protein kinase (nuclear); assay type: biochemical, human; details: GST-CTD substrate, FIG. 1C
Procedure: (§2) GST-NFκp65 and GST-CTD were expressed in BL21 pLysS E. Coli cells and purified by selective absorption to glutathione sepharose beads. GST-NFκBp65 was incubated with Molt-4 cytosolic and nuclear extracts, prepared as described above. Reaction mixtures were washed in PBS. The precipitated complexes were then incubated with GST-CTD of RNA polymerase II large subunit in kinase buffer containing γ-[^32P]ATP as previously described (Hayashi et al., 1993, J. Biol. Chem., 268: 26790-26795; Faustman et al., 1989, Diabetes, 38: 1462-1468). One-fortieth of the input (I) and supernatant (S) fractions and 1/40 of the last wash (W) and pellet (P) fractions were used for in vitro kinase reaction. Protein complexes were collected by brief centrifugation, washed and then incubated with GST-CTD substrates in kinase buffer containing y-^32P ATP. The products of the in vitro kinase reactions were then analyzed on SDS-PAGE. […] To determine whether the kinase activity of NFκBp65-associated protein kinase were sensitive to DRB, the ability of DRB to inhibit the kinase activity of NFκBp65 association protein kinase was tested by examining the phosphorylation of CTD in the presence of different concentrations of DRB. […] Quantitation of the gel shown in FIG. 1C with an image analyzer (a BAS 3000 phosphorimager) was plotted on a graph. […]

[2] = target: T1, NFκBp65-associated protein kinase (cytosolic); assay: In vitro kinase assay, GST-CTD phosphorylation by GST-NFκBp65-precipitated complexes from Molt-4 cytosolic extract; assay type: biochemical, human; details: GST-CTD substrate, FIG. 1C
T1 construct: other: cytosolic; GST-C
Procedure: as §2

20S proteasome [3] = assay: In vitro p105/p60Tth processing assay with mouse spleen cytosolic extracts; assay type: biochemical; details: MG115 50 μM, FIG. 12A, 12B right
Procedure: To investigate whether the altered abundance of p50 in NOD mouse spleen cells could be attributable to defective processing of p105 by the proteasome, the processing of p105 by cytosolic extracts of NOD mouse spleen cells was examined using recombinant p105 or the truncated version p60Tth as substrates. The in vitro p105 processing assay reaction was performed as previously described (Fan and Maniatis, 1991, supra). In brief, p105 and p60Tth expression constructs were subjected to in vitro transcription and translation in a wheat germ extract system (Promega) in the presence of [^35S]methionine. The ^35S-labeled p105 and p60th proteins were immunoprecipitated with polyclonal antibodies to p50 and purified for use as substrates. Each substrate protein was incubated for 90 minutes at 30° C. with spleen cytosolic extract (20 or40 μg of protein) in a final volume of 25 μl in the absence or presence of 10 mM ATP (Palombella et al., 1994, supra). The proteasome inhibitor MG115 was also added to the reaction mixture where indicated (FIG. 12). The processed proteins were separated by SDS-polyacrylamide gel electrophoresis (PAGE) on a 10% gel and visualized by autoradiography. […] When p60Tth was incubated with cytosolic extracts of BALB/c cells in the presence of […], mature p50 was generated (FIG. 12A, center). […]

proteasome = assay: In vitro p105 processing assay with cytoplasmic extracts of T1, T2, Molt-4 and Jurkat cells; assay type: biochemical; details: 50 μg MG115; cell line cytoplasmic extracts; FIG. 12G
Procedure: The labeled p105 was incubated with the cytosolic extracts of these cell lines (20 or 40 μg of protein at left and center) and the reaction mixtures were incubated with (center; FIGS. 12E, F and G) or without (upper; FIGS. 12E, F and G) 10 mM ATP in a wheat germ extract system (Promega) as above. Incubations were also performed in the absence (−) or presence (+) of 50 μg MG115 (lower; FIGS. 12E, F and G). Lane 1 in all gels presented in FIGS. 12E, F and G corresponds to reaction mixtures without substrate. Incubations were performed at 30° C. for 90 minutes, after which the reaction mixtures were analyzed by SDS-PAGE and autoradiography. […] When p105 was incubated with the cytoplasmic extracts of T1 cells, Molt-4 cells and Jurkat cells in the presence of 10 mM ATP, the mature p50 was detected (FIG. 12F); however, the p50 was not generated by incubation of p105 with the cytoplasmic extracts prepared from T2 cells in the presence of 10 mM ATP (FIG. 12F, lanes 4 and 5). To verify that the maturation processing of p50 in the in vitro reaction was mediated by the proteasome processing pathway, the effect of MG115 on proteasome function was examined.

20S proteasome [4] = details: MG115 50 μM; Palombella et al., 1994; cited from earlier work
NF-κB [5] = assay: EMSA of nuclear NF-κB DNA-binding activity in TNF-α-treated cell lines; assay type: cell-based; details: TNF-α 10 ng/ml, 4 h, FIG. 11A
Procedure: Furthermore, in the […] cell line, in which Lmp2 and Lmp7 genes have been deleted, NF-κB is not activated in response to TNF-α. The effect of TNF-α treatment on the DNA-binding activity of nuclear NF-κB was examined (FIG. 11). EMSA was performed such that cell extracts from mutant T2 cells compared to those of control T1 cells, Molt-4 cells and Jurkat cells after stimulation for 4 h in the absence (−) or presence (+) of 10 ng/ml TNF-α.
-unlabeled oligonucleotide (κB1). Double-stranded oligodeoxynucleotides were synthesized on a DNA synthesizer by the phosphoramidite method and purified on an OPC cartridge. […] The DNA-protein complexes were resolved by electrophoresis on nondenaturing 8% polyacrylamide gels with 0.5×TBE (Tris-borate-EDTA) buffer at 4° C. For competition experiments, nuclear extracts was incubated for […] at 4° C. with a 100-fold molar excess of unlabeled κB oligonucleotide before addition of the radioactive probe. Cytosolic extracts were treated with 1.2% NP-40 and 0.8% deoxycholate to dissociate IκB from NF-κB before incubation with 3^2P-labeled probe. For supershift assays, nuclear extracts were incubated with specific antibodies in 1 hour at 4° C. before addition of DNA probes. Lanes 1 correspondes to negative controls in which nuclear extract was not added.

NF-κB [6] = assay: EMSA of NF-κB DNA-binding activity in nuclear extracts of TNF-α-treated spleen cells; details: NOD mouse spleen cells (male and female); TNF-α 10 ng/ml, 4 hours; FIG. 8A
Procedure: In order to assess the influence of TNF-α on NFκB in an in vitro system, a DNA/protein binding assay was undertaken. Nuclear extracts were prepared from BALB/C and NOD mice by methods described above. The binding activities were examined by EMSA with ^32P end-labeled oligonucleotide containing an NFκB recognition sequence. Spleen cells were stimulated with TNF-α treatment (10 ng/ml;+) or without TNF-α treatment (−) and nuclear extracts from the treated cells were prepared 4 hours later. Nuclear extract prepared from spleen cells of BALB/C (lanes 2-5; FIG. 8A) and NOD (lanes 6-9; FIG. 8A) mice and Molt-4 cells (lanes 10 and 11; FIG. 8A) were incubated with DNA probe as follows:
Double-stranded κB wt, κB mut or IL-R2α κB oligonucleotides were end-labeled using [α-^32P]dCTP and Klenow polymerase. Binding reactions of the DNA probe with nuclear extracts were performed at 37° C. for minutes in a total volume of 10 μl of buffer containing 10 mM Hepes (H 7.9), 50 mM KCl, 5 mM Tris-HCl (pH 7.0), 1 mM DTT, 15 mM EDTA, 10% (v/v) glycerol, 1.0 μg of poly (dI.dC), and 4 ng of the labeled probe. The DNA-protein complexes were resolved on nondenaturing 8% polyacrylamide gels. Electrophoresis was performed with 0.5×TBE buffer (4.5 mM Tris-HCl, 4.5 mM boric acid, 0.1 mM EDTA) at 4° C. A negative binding control, to which no nuclear extract was added, was run in lane 1. […]

IκBα = assay: Immunoblot of cytosolic IκBα in TNF-α-treated spleen lymphocytes; assay type: cell-based, mouse; details: TNF-α 10 ng/ml, FIG. 10B
Procedure: The basal expression of NF-κB subunits, IκBa and cyclin-dependent kinases was examined by immunoblot analysis of cytosolic and nuclear extracts of male (M) or female (F) BALB/c and NOD mouse spleen cells (FIG. 10). In these experiments, extracts of spleen cells were subjected to SDS-PAGE on a 12.5% gel under non-reducing conditions. The separated proteins were transferred electrophoretically to a polyvinylidene difluoride (PVDF) membrane which was then incubated for 2 hours at room temperature with TBS-T (20 mM Tris-HCl, pH 7.6; 137 mM NaCl; 0.05% volume/volume Tween 20) containing 8% (weight/volume) bovine serum albumin. The membrane was then incubated for 12 h at 4° C. with TBS-T containing the appropriate polyclonal antibodies, washed 4×5 minutes with TBS-T at room temperature, incubated for 2 hours at room temperature with TBS-T containing alkaline phosphatase-conjugated secondary antibodies, washed five times with TBS-T and subjected to the alkaline phosphatase color reaction. […]
To assess the dynamics of IκBα protein expression occurring during lymphocyte activation by TNF-α treatment, subcellular fractions from lymphocytes derived from BALB/c and NOD spleen were treated with 10 ng/ml TNF-α. […] IκBα protein was readily detected in the cytosolic extracts from both unstimulated lymphocytes, BALB/c and NOD. […]

spleen cells = assay: TNF-α cytotoxicity of spleen cells (viable cell count, DNA fragmentation); assay type: cell-based, mouse
Procedure: One critical function of NFκB is to provide protection to cells from the effects of exogenous TNF-α. […] Spleen cells were cultured for 24 hours after exposure to various concentrations (2, 5, 10 or 20 ng/ml) of TNF-α, as indicated on the X axis of the figure. Viable cells remaining after TNF-α treatment are shown as a percentage of viable control (untreated) cells. Standard deviations were calculated from four independent readings within a single experiment. The survival over time of cells treated with TNF-α is charted in FIG. 13B. Spleen cells were treated with TNF-α (10 ng/ml), and viable cells were counted at various times following treatment as indicated on the X axis of the figure.
(§1) DNA fragmentation was evaluated and detected by agarose gel electrophoresis after spleen cells were cultured in 10 ng/ml TNF-α for 24 hours. […] Embryonic fibroblasts prepared from BALB/c and NOD mice were cultured DMEM containing 10% fetal bovine serum and then incubated with various concentrations of TNF-α for 24 hours (FIG. 13D, top) or with TNF-α at 10 ng/ml for the indicated times (FIG. 13D, bottom). Cell viability was assessed by trypan blue exclusion. Data are means±SD of four replicates from a representative experiment, and are expressed as a percentage of the survival value for the corresponding cells not exposed to TNF-α.

[7] = system: mouse embryonic fibroblasts (MEF); assay: TNF-α cytotoxicity of embryonic fibroblasts (trypan blue exclusion); assay type: cell-based; details: NOD MEF; various TNF-α concentrations 24 hours or 10 ng/ml over time; FIG. 13D
Procedure: as §1

Compound: OC[C@H]1O[C@@H](n2cnc3cc(Cl)c(Cl)cc32)[C@H](O)[C@@H]1O [DRB, 5,6-dichloro-1-β-D-ribofuranosylbenzimidazole]
- concentration required for 50% inhibition of the activity of NFκBp65-associated protein kinase [1]: 1 µM
- concentration required for 50% inhibition of the activity of NFκBp65-associated protein kinase [2]: 10 µM

Compound: CCC[C@@H](C=O)NC(=O)[C@H](CC(C)C)NC(=O)[C@H](CC(C)C)NC(=O)OCc1ccccc1 [MG115] (Cbz-Leu-Leu-[Nva]-aldehyde)
- processing of p105 and p60Tth (20S proteasome [3]): completely inhibited
- p105 processing to p50 (proteasome): clearly resulted in defective p105 processing
- processing of p105 (20S proteasome [4]): prevent the processing of p105

Compound: TNF-α
- expression of the active nuclear form of NF-κB on EMSA (NF-κB [5]; T1, Molt-4 and Jurkat cells): markedly detected
- NF-κB activity (NF-κB [5]; T2 cells (Lmp2, Lmp7 deleted)): not induced
- NF-κB activation (NF-κB [6]): only slightly induced
- time to disappearance of cytosolic IκBα (IκBα; BALB/c lymphocytes): ≤ 40 min
- cytosolic IκBα during TNF-α treatment (IκBα; NOD lymphocytes): clearly detected after 40 minutes of stimulation and then stably expressed
- DNA fragmentation by agarose gel electrophoresis (spleen cells; NOD but not BALB/c spleen cells, TNF-α 10 ng/ml, 24 hours, FIG. 13C): resulted in apoptosis
- toxicity, cell survival (spleen cells; NOD spleen cells, TNF-α 2-20 ng/ml, 24 hours, or 10 ng/ml over time, FIG. 13A, 13B): toxic
- cellular toxicity [7]: no cellular toxicity
